This experiment concerns the target T1, SARS-CoV-2 PLpro-NAB (Severe acute respiratory syndrome coronavirus 2, UniProt P0DTD1).
T1 construct: gene rep; nsp3 fragment with PLpro and NAB domains, cut from replicase polyprotein 1a/1ab; His tag removed by TEV; E. coli BL21(DE3), pET24b
The experiment in a line: biochemical. The experiment is classed as biochemical.

Here are results for 2 molecules from paper doi:10.1101/2023.10.11.561987v1, “Resolving the pharmacological redox-sensitivity of SARS-CoV-2 PLpro in drug repurposing screening enabled identification of the competitive GRL-0617 binding site inhibitor CPI-169” (biorxiv, 2023).

Take `NC(Cc1cc(O)c(O)cc1O)C(=O)O` (racemic) [6-Hydroxy-DL-DOPA]: the IC50 (in general, the concentration that gives 50% inhibition) was over 20 µM.

As to `Cc1nc2c(=O)n(C)c(=O)nc-2n(C)n1` [3-Methyl Toxoflavin], the IC50 came out at 0.074 µM.
